Measured values as given in patent publication US11339150B2, “Benzimidazole compounds as HDAC6 inhibitors” (OnKure, Inc., priority 2019, dated 2022).

What was measured:
HDAC3 = HDAC3 (Homo sapiens, UniProt O15379); test: HDAC assay (fluorogenic substrate), HDAC3; format: biochemical; conditions: isoform selectivity table
Experimental: (§1) Base Reaction buffer: 50 mM Tris-HCl, pH8.0, 137 mM NaCl, 2.7 mM KCl, and 1 mM MgCl2. Add fresh: 1 mg/ml BSA, 1% DMSO
(§2) Fluorogenic HDAC General Substrate: 50 μM, Arg-His-Lys-Lys(Ac)
(§3) • 1. Deliver 2× enzyme in wells of reaction plate except No Enzyme control wells. Add buffer in No En wells. • 2. Deliver compounds in 100% DMSO into the enzyme mixture by Acoustic technology (Echo550; nanoliter range). Spin down and pre-incubation. • 3. Deliver 2× Substrate Mixture (Fluorogenic HDAC Substrate and co-factor if applicable) in all reaction wells to initiate the reaction. Spin and shake. • 4. Incubate for 30 min for Class 2A, 1 hr for HDAC1, 2, 3, and 6, and 2 hr for the rest of HDACs and SIRTs at 30° C. with seal. Development Step: • 5. Add Developer with Trichostatin A (or Nicotinamide for SIRTs) to stop the reaction and to generate fluorescent color. • 6. Kinetic measurement for 1.5 hr with Envision with 15 min interval. (Ex/Em=360/460 nm) • 7. Take endpoint reading for analysis after the development reaches plateau.

HDAC6 = biological target: T1, HDAC6 (Homo sapiens, UniProt Q9UBN7); test: HDAC assay (fluorogenic substrate), HDAC6; format: biochemical
T1 sequence (Q9UBN7 1-1215): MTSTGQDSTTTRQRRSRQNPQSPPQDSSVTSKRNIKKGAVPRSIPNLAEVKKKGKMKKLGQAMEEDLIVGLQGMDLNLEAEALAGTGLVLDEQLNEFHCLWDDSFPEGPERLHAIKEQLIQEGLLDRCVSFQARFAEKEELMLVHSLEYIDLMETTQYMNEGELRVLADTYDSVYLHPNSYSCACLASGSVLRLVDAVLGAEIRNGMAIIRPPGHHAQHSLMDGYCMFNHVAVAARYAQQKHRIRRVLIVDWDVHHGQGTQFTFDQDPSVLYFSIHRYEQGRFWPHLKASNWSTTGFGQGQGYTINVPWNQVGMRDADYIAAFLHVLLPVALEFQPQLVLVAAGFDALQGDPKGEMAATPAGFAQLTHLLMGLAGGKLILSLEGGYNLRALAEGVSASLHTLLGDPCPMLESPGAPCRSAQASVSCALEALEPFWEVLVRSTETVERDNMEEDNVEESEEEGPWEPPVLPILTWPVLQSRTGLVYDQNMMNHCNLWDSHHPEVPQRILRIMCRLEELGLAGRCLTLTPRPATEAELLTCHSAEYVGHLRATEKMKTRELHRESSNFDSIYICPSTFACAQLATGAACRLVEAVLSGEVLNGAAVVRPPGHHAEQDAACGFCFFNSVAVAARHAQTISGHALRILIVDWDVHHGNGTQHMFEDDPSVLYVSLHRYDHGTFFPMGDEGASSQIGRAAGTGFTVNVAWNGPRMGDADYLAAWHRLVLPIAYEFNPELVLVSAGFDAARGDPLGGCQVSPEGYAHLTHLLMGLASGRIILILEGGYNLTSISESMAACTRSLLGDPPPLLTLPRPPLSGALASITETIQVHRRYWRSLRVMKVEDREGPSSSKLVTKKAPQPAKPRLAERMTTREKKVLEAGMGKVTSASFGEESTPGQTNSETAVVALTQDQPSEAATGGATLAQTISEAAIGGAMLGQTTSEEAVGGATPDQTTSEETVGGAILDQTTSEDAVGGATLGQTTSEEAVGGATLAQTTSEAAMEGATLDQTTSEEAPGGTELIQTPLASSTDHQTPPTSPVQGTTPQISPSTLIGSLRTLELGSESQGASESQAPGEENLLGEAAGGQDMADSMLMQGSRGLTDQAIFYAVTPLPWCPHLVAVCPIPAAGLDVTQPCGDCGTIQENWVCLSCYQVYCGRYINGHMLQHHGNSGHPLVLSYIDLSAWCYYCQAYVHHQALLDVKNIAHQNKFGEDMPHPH
Experimental: as §1, §2, §3

[1] = tested on: Tubulin deacetylation in U266B1 human myeloma cell line; test: Tubulin deacetylation inhibition in U266B1 cells; format: cell-based; conditions: Cell Type U266B1
Experimental: Tubulin Deacetylation Inhibition
Example 1 was dissolved with DMSO at 10 mM stock. Reference compound TSA was dissolved with DMSO at 10 mM stock. U266B1 human myeloma cell line was purchased from American Type Culture Collection (Manassas, Va.). U266B1 cells were grown in RPMI medium and supplemented with 15% heat-inactivated fetal bovine serum (FBS), 100 μg/ml penicillin, and 100 μg/ml streptomycin. Cultures were maintained at 37° C. in a humidified atmosphere of 5% CO2 and 95% air. 12% Bis-Tris gel and nitrocellulose membrane were purchased from Thermo Fisher. Anti-acetylated-Tubulin antibody (Catalogue #T7451) was purchased from Sigma-Aldrich. Anti-α-Tubulin antibody (Catalogue #sc-12462-R) antibody was purchased from Santa Cruz Biotechnology. Anti-Acetylated Histone H3 (K9) (Catalogue #9649) and anti-Histone H3 (Catalogue #3638) antibodies were purchased from Cell Signaling Technology. Anti-rabbit IgG IRDye 680RD or anti-mouse IgG IRDye 800CW secondary antibodies were purchased from LI-COR.

HDAC1 = HDAC1 (Homo sapiens, UniProt Q13547); test: HDAC assay (fluorogenic substrate), HDAC1; format: biochemical; conditions: isoform selectivity table
Experimental: as §1, §2, §3

HDAC2 = HDAC2 (Homo sapiens, UniProt Q92769); test: HDAC assay (fluorogenic substrate), HDAC2; format: biochemical; conditions: isoform selectivity table
Experimental: as §1, §2, §3

[2] = Pharmacokinetic evaluation in male CD1 mice; conditions: mouse, in vivo, po, 10 mg/kg (p.o.)

Sequence of HDAC3 (O15379 whole entry, canonical isoform): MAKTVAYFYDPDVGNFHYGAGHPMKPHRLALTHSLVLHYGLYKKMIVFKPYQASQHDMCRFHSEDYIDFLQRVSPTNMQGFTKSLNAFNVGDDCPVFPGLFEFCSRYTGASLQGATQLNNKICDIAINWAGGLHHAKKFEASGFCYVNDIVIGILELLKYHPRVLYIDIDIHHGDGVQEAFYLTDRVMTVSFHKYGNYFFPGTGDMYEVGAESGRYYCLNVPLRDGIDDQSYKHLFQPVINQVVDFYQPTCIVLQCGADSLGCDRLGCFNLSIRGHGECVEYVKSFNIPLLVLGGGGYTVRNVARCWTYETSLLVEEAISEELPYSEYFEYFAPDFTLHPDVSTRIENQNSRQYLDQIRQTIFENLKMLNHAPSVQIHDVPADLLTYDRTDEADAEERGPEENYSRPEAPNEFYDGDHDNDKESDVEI
Sequence of HDAC3 (Q9Y618 395-489 partner limits assumed): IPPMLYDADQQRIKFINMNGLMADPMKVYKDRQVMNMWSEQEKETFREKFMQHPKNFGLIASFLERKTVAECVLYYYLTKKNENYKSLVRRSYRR
Sequence of HDAC1 (Q13547 whole entry, canonical isoform): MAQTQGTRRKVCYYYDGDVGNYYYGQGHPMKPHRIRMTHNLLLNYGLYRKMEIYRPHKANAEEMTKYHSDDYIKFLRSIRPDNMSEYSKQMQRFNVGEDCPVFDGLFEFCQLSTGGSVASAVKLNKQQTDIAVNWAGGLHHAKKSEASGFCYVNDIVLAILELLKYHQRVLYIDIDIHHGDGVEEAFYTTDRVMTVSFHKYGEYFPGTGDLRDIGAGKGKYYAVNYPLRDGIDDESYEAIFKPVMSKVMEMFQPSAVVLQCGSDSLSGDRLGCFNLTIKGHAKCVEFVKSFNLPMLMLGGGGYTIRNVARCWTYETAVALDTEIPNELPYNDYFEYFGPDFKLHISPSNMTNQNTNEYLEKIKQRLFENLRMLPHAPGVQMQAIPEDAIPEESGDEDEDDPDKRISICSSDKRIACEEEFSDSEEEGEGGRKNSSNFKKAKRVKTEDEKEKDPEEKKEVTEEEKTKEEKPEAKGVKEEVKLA
Sequence of HDAC2 (Q92769 whole entry, canonical isoform): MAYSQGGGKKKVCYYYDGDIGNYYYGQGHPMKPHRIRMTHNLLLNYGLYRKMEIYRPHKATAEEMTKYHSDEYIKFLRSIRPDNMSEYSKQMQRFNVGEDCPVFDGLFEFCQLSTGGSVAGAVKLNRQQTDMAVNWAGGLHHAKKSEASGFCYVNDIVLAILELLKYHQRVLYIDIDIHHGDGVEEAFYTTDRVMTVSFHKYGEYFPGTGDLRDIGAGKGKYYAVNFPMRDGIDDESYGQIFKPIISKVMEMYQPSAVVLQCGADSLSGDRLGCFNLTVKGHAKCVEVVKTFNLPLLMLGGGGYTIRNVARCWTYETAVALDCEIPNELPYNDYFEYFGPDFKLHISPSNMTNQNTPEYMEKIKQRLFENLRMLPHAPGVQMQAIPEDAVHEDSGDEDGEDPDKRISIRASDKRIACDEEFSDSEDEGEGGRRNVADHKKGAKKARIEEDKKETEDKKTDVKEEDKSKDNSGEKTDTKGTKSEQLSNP

| SMILES | inhibition at 10 µM (HDAC6) [%] | further results |
| --- | --- | --- |
| FC(F)c1nnc(-c2cnc(Nc3cc(-c4ccccc4)c4nc[nH]c4c3)nc2)o1 [Example 1, N-(5-(5-(difluoromethyl)-1,3,4-oxadiazol-2-yl)pyrimidin-2-yl)-4-phenyl-1H-benzo[d]imidazol-6-amine] | > 90 | inhibition at 10 µM (HDAC3): < 10%; % HDAC6 Inhibition @ 10 uM (HDAC6; 10 uM, isoform selectivity table): >90%; IC50 [1]: 2700 nM; inhibition at 10 µM (HDAC1): < 20%; inhibition at 10 µM (HDAC2): < 10%; AUC(0-t) [2]: 5820 ng·h/mL; Cmax [2]: 1450 ng/mL; half-life ([2]; read-out: T1/2 h (converted)): 1.75 h |
| OCCn1c(C(F)(F)F)nc2c(-c3ccccc3)cc(Nc3ncc(-c4nnc(C(F)F)o4)cn3)cc21 [Example 41, 2-(6-((5-(5-(difluoromethyl)-1,3,4-oxadiazol-2-yl)pyrimidin-2-yl)amino)-4-phenyl-2-(trifluoromethyl)-1H-benzo[d]imidazol-1-yl)ethan-1-ol] | > 90 |  |
| Fc1cc(I)ccc1-c1cc(Nc2ncc(-c3nnc(C(F)F)o3)cn2)cc2[nH]cnc12 [Example 42, N-(5-(5-(difluoromethyl)-1,3,4-oxadiazol-2-yl)pyrimidin-2-yl)-4-(2-fluoro-4-iodophenyl)-1H-benzo[d]imidazol-6-amine] | > 90 |  |
| FC(F)c1nnc(-c2cnc(Nc3cc(-c4cn[nH]c4)c4nc[nH]c4c3)nc2)o1 [Example 44, N-(5-(5-(difluoromethyl)-1,3,4-oxadiazol-2-yl)pyrimidin-2-yl)-4-(1H-pyrazol-4-yl)-1H-benzo[d]imidazol-6-amine] | > 90 |  |
| OCCn1cnc2c(-c3cn[nH]c3)cc(Nc3ncc(-c4nnc(C(F)F)o4)cn3)cc21 [Example 46, 2-(6-((5-(5-(difluoromethyl)-1,3,4-oxadiazol-2-yl)pyrimidin-2-yl)amino)-4-(1H-pyrazol-4-yl)-1H-benzo[d]imidazol-1-yl)ethan-1-ol] | > 90 |  |
| FC(F)c1nnc(-c2cnc(Nc3cc(-c4ccccc4)c4ncn(CC(F)(F)F)c4c3)nc2)o1 [Example 48, N-(5-(5-(difluoromethyl)-1,3,4-oxadiazol-2-yl)pyrimidin-2-yl)-4-phenyl-1-(2,2,2-trifluoroethyl)-1H-benzo[d]imidazol-6-amine] | > 90 |  |
| CC(/C=C/C(=O)NO)=C\[C@@H](C)C(=O)c1ccc(N(C)C)cc1 [Trichostatin, reference compound] |  | IC50 [1]: 750 nM |

The next lines start with results.

| inhibition at 10 µM (HDAC6) [%] | SMILES | further results |
| --- | --- | --- |
| > 90 | Cn1nccc1-c1cc(Nc2ncc(-c3nnc(C(F)F)o3)cn2)cc2[nH]cnc12 [Example 40, N-(5-(5-(difluoromethyl)-1,3,4-oxadiazol-2-yl)pyrimidin-2-yl)-4-(1-methyl-1H-pyrazol-5-yl)-1H-benzo[d]imidazol-6-amine] |  |
| > 90 | Fc1ccc(Cl)cc1-c1cc(Nc2ncc(-c3nnc(C(F)F)o3)cn2)cc2[nH]cnc12 [Example 45, 4-(5-chloro-2-fluorophenyl)-N-(5-(5-(difluoromethyl)-1,3,4-oxadiazol-2-yl)pyrimidin-2-yl)-1H-benzo[d]imidazol-6-amine] |  |
| > 90 | C#CCn1cnc2c(-c3ccccc3)cc(Nc3ncc(-c4nnc(C(F)F)o4)cn3)cc21 [Example 47] |  |
